The values that follow come from patent US20160375039A1, “COMPOUNDS FOR THE TREATMENT OF OBESITY AND METHODS OF USE THEREOF” (The Children's Medical Center Corporation, priority 2013, published 2016).

Entries after “also recorded” stand apart in the source; their conditions may differ.

For series [1] the following is noted: weight loss product rating; cited from earlier work.
In series [2] the test system is HFD-fed obese mice. Kind of series: Leptin sensitivity: overnight food intake after acute Withaferin A and leptin injection, HFD-fed obese mice. It counts as in vivo, mouse. As for the experimental part:
(§1) Therefore is it possible that Withaferin A exerts the anti-obesity effects through increasing the leptin sensitivity in the brains of the HFD-fed obese mice. To test this hypothesis, leptin was administered to Withaferin A or vehicle treated HFD-fed obese animals. To avoid any possible leptin sensitizing effect of weight loss or decreased food intake created by Withaferin A administration, leptin injections were carried out upon acute Withaferin A treatment. Lean and HFD-fed obese mice were divided into four groups: 1) DMSO+saline, 2) DMSO+leptin, 3) Withaferin A+saline, and 4) Withaferin A+leptin (n=6 per group). The mice were injected (i.p.) with 1.5 mg/kg Withaferin A or vehicle (DMSO) one hour before dark cycle (day zero). 24 hours later, the second and final injection of DMSO or Withaferin A was administered. 30 minutes prior to dark cycle, mice received a single i.p. injection of leptin (1 mg/kg for HFD mice, dissolved in saline; 5 mg/kg for lean mice), or saline. Over night food intakes were recorded (HFD, FIG. 4A; Chow FIG. 4B). […] In addition, HFD-fed obese mice were resistant to the food intake reducing effect of leptin unless they received Withaferin A (FIG. 4A).

Another series deals with HFD-fed mice. The series can be described thus: Body composition by Dual-Emission X-ray Absorptiometry (DEXA). It is filed as in vivo, mouse. Conditions: i.p. 2 mg/kg, two weeks. As for the experimental part: To analyze the change in body composition during Withaferin A treatment (i.p. 2 mg/kg), lean mass and fat mass of mice with Dual-Emission X-ray Absorptiometry (DEXA) were measured.

A further series concerns lean mice. The series can be described thus: Leptin sensitivity: overnight food intake after acute Withaferin A and leptin injection, lean mice. It is filed as in vivo, mouse. Here is the method:
as §1

Series [3] deals with HFD-fed obese C57Bl/6J mice. Kind of series: Withaferin A daily i.p. to HFD-fed obese mice for three weeks: body weight, food intake, fasting blood glucose. It counts as in vivo, mouse. Here is the method:
To investigate whether Withaferin A can act as an anti-obesity drug by increasing leptin sensitivity and reducing appetite, C57Bl/6J mice were placed on a high fat diet (HFD; Research Diets, D12451, 45 kcal % fat) feeding for 16 weeks. After establishment of obesity and leptin resistance, mice were administered Withaferin A (at 2 mg/kg, in 25 μl DMSO, once per day) and vehicle (DMSO, 25 n1) with intraperitoneal (i.p.) injection. The animals had free access to food and water unless otherwise stated. In all experiments, three days prior to drug administration, the animals went through an acclimation period where they were given DMSO (25 n1) to reduce the effect of stress created by i.p. injection.
Following three days acclimation, mice were administered Withaferin A daily i.p. injections at 2 mg/kg for three weeks in 25 μl of DMSO as vehicle, whereas the control group received the same volume of DMSO. […] At day 21 of the experiment, the 6-hour fasting blood glucose of mice was measured.

Series [4] has as its system HFD-fed obese mice. The series can be described thus: Glucose Tolerance Test (GTT). It counts as in vivo, mouse. The conditions noted are these: 2 mg/kg i.p., one week, D-glucose 1 g/kg i.p., vs vehicle. As for the experimental part:
(§2) In order to analyze the effect of Withaferin A on glucose homeostasis, we performed Glucose Tolerance Test (GTT) and Insulin Tolerance Test (ITT) after chronic i.p. Withaferin A treatment (2 mg/kg). For GTT, mice were fasted overnight following one week of Withaferin A treatment and received an i.p. injection of D-glucose (1 g/kg) in the morning. For ITT, after 16 days of Withaferin A treatment, mice were fasted for 6 hours (from 8 a.m. to 2 p.m.) and recombinant human insulin (1 IU/kg from Eli Lilly) was injected intraperitoneally. In both procedures, blood glucose was measured from tail vein blood at 0, 15, 30, 60, 90 and 120 minutes after injection.

Series [5] relates to HFD-fed obese mice. The series can be described thus: Insulin Tolerance Test (ITT). Conditions: 2 mg/kg i.p., day 16, insulin 1 IU/kg i.p. It is filed as in vivo, mouse. Here is the method:
as §2

Series [6] concerns 10-week old lean mice on chow diet. The series can be described thus: Withaferin A i.p. to lean mice on chow diet for three weeks. It counts as in vivo, mouse. The conditions noted are these: 2 mg/kg i.p. Here is the method:
Withaferin A was administered to 10-week old lean mice on chow diet at 2 mg/kg for three weeks by i.p. injections.

The test system of series [7] is leptin receptor deficient (db/db) mice. Kind of series: Withaferin A to leptin receptor deficient (db/db) mouse model of obesity. It counts as in vivo. The conditions noted are these: 2 mg/kg once a day. Here is the method:
To explore whether Withaferin A's effect is leptin dependent, Withaferin A (2 mg/kg, once a day, in 2Sμ1 DMSO) was administered to leptin receptor deficient (db/db) mouse model of obesity.

`[Cr]` [Chromium]: the Safety entry in series [1] was “Likely safe”.
As for `CC1=C(CO)C(=O)O[C@@H]([C@@H](C)[C@H]2CC[C@H]3[C@@H]4C[C@H]5O[C@]56[C@@H](O)C=CC(=O)[C@]6(C)[C@H]4CC[C@]23C)C1` [Withaferin A], the “anorectic action of leptin” value in the series with HFD-fed obese mice [2] (HFD mice, Withaferin A 1.5 mg/kg i.p. before leptin 1 mg/kg) is “significantly potentiated”; in the series on lean mice (lean mice, Withaferin A 1.5 mg/kg i.p. before leptin 5 mg/kg), “significantly potentiated”. Moreover, the “decrease in food intake upon leptin injection” value was 75% in the series on HFD-fed obese mice [2] (HFD-fed obese mice, Withaferin A 1.5 mg/kg i.p. + leptin 1 mg/kg i.p., compared to vehicle treated non-leptin group) and “approximately 50%” in the series on lean mice (lean mice, Withaferin A 1.5 mg/kg i.p. + leptin 5 mg/kg i.p., compared to vehicle treated non-leptin group). In addition, the overnight food intake entry in the series on HFD-fed obese mice [2] (HFD-fed obese mice, Withaferin A 1.5 mg/kg i.p. alone, no exogenous leptin) is “decreased the food intake”; with lean mice (lean mice, Withaferin A 1.5 mg/kg i.p. two injections, without leptin), “did not change”. Also, the fat percentage entry with HFD-fed mice is recorded as “decreased significantly”. The lean mass result with HFD-fed mice is listed as “did not change”. In series [3] (2 mg/kg i.p. daily, day 21, 2 mg/kg), the “6-hour fasting blood glucose” value was “decreases blood glucose; also recorded: robust decrease”. Also, the food intake result in series [3] (2 mg/kg i.p. daily, three days average within first week) is “significantly decreased”; in series [6] (three weeks), “failed to induce bodyweight loss or suppress food intake”; in series [7] it was “did not show a decrease”. Besides, the body weight result in series [3] (2 mg/kg i.p. once per day, three weeks, vs DMSO vehicle) is recorded as “significantly decreased”; in [6] (three weeks), “failed to induce bodyweight loss”; in series [7], “continued to increase similar to the vehicle treated group”. Further, the “glucose homeostasis (AUC of GTT)” value with HFD-fed obese mice [4] is reported as “significantly improved”. For the same molecule, the “insulin sensitivity (ITT)” value with HFD-fed obese mice [5] is listed as “improved insulin sensitivity”. The blood glucose levels entry in series [6] (after 3 weeks of treatment) is reported as “not altered”; in [7] (end of 3-week treatment), “tendency to decrease but did not reach statistically significant levels”.
Take Conjugated linoleic acid: in series [1], the Effectiveness result is “Possibly” and the Safety result was “Possibly safe”.
As to “leptin: peptide hormone, afferent signal in a negative feedback loop regulating food intake and body weight”, in the series on HFD-fed obese mice [2] (HFD-fed obese mice without Withaferin A, leptin 1 mg/kg single i.p. injection), the “food intake reducing effect of leptin” value is “resistant”. For the same molecule, the overnight food intake entry with lean mice (vehicle treated lean mice, leptin 5 mg/kg single i.p. injection) is “suppressed food intake”.
